Read-outs that look alike come from different tables or passages of the source.
Assays:
[1] = target: T1, TRPC7 (Homo sapiens, UniProt Q9HCX4); assay: OAG-induced Ca2+ entry in Fura2-loaded HEK293 cells overexpressing TRPC7; assay type: cell-based
T1 construct: expressed in transfected cells; host or cells: HEK293 (transient transfection)
T1 sequence (Q9HCX4 1-862): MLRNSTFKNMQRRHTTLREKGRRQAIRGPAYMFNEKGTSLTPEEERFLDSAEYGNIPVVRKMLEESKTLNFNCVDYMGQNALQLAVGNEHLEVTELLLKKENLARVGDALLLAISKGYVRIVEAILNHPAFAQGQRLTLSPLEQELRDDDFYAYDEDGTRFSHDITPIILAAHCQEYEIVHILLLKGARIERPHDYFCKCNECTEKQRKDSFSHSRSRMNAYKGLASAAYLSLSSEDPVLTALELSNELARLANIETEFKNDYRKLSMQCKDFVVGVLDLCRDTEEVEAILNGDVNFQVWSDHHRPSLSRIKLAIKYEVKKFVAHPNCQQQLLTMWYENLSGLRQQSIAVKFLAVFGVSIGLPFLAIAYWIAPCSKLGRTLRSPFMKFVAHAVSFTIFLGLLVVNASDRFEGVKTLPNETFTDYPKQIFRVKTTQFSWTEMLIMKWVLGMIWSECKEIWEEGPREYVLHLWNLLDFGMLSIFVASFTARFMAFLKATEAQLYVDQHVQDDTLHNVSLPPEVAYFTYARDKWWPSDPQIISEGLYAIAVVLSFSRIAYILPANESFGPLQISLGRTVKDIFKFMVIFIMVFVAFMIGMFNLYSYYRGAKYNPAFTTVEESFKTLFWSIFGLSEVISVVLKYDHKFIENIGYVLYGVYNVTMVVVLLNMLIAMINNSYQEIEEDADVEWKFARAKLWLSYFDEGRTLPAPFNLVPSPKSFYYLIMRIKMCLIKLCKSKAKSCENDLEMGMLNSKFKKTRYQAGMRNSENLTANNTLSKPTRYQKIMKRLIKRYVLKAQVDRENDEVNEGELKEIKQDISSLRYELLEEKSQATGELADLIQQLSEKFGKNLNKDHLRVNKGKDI
Experimental: Inhibition of DAG-mediated TRPC activation. To determine if ELP-004 (N-MeDCPA) inhibits DAG-induced TRPC activation, HEK293 cells expressing TRPC3, TRPC6 or TRPC7 were loaded with Fura2 and incubated with ELP-004 (0 to 1 mM) for 10 minutes prior to challenging with 1-Oleoyl-2-acetyl-sn-glycerol (OAG), a membrane permeable form of diacylglycerol.
Cell Culture—HEK293 cells were grown in DMEM with 4.5 g/L glucose supplemented with 10% FBS and 1% Gentamycin (Full DMEM media; Thermo-Fisher Scientific, Waltham, MA) at 37° C. and 5% CO2. […]
TRPC activity assay—Cells grown on glass coverslips were incubated in a cation-safe buffer (107 mM NaCl, 7.2 mM KCl, 1.2 mM MgCl2, 11.5 mM Glucose, 20 mM HEPES-NaOH, 1 mM CaCl2), pH 7.2) and loaded with Fura2-acetoxymethylester (Fura2-AM; 2 μM) for 30 min at 24° C. as previously described^10,11. […] Ca^2+/Sr^2+ measurements were taken using a Leica DMI 6000B fluorescence microscope controlled by Slidebook software (Intelligent Imaging Innovations, Denver, CO). Fluorescence emission at 505 nm was monitored in response to excitation at alternating 340 nm and 380 nm wavelengths at a frequency of 0.67 Hz; intracellular Ca^2+ measurements are shown at 340/380 nm ratios obtained from groups of 35-45 single cells. […]

[2] = Metabolite formation in mouse liver S9; assay type: in vitro ADME; conditions: cofactors-fortified mouse liver S9, 37 degrees centigrade, 1 hour; LC-MS/MS
Experimental: Drug Synthesis—ELP-004 (N-MeDCPA) was synthesized as described in U.S. patent Ser. No. 10/682,320. […] Metabolites formed after incubations using either cofactors-fortified mouse or human liver S9 (mouse liver S9; human liver S9) at 37 degrees centigrade for 1 hour. The reaction was quenched by ultracentrifugation. The supernatant was analyzed using LC-MS/MS analysis using Accela LC (Thermo Scientific, Inc., San Jose, CA) coupled to an LTQ LX or to LTQ Orbitrap XL.
ELP-004 is N-(3,4-dichlorophenyl)-N-methylpropanamide. The core structure of ELP-004 is an aniline compound. Aniline compounds, generally, have a high risk of forming reactive metabolites. ELP-004 was specifically designed to preclude formation of reactive metabolites. Methylation of the amide nitrogen improves metabolic stability.

[3] = tested on: bone erosion in collagen-induced arthritis (CIA); assay: Collagen-induced arthritis (CIA) bone erosion in mice; assay type: in vivo
Text: Inflammatory arthritis often requires treatments with serious side effects. Later in arthritis, bone erosion is a major problem that causes severe pain and debilitation. There is no small molecule drug available to specifically treat arthritis bone erosion. […] In previous studies, we had focused on store-operated Ca^2+ entry as the target of ELP-004, since Orail is required for osteoclast differentiation and ELP-004 blocks RANKL-induced osteoclast differentiation and SOCE at similar concentrations. However, ELP-004 blocks bone erosion in vivo at a remarkable 1000-fold higher efficacy, leading us to question the identity of the critical ion channel. To address this question, we performed a series of ELP-004 dose responses on HEK293 cells overexpressing different combinations of STIM/Orai, TRPC channels or CaV1.2. Remarkably, all TRPC channels were highly sensitive to ELP-004, leading us to consider the possibility that TRPC channels are the true target in arthritis-induced bone erosion. We are currently assessing the possibility that ELP-004 may inhibit osteoclastogenesis with higher efficacy when driven by inflammatory cytokines, both in vitro and in vivo. […]

For `CCC(=O)N(C)c1ccc(Cl)c(Cl)c1` [ELP-004, N-(3,4-dichlorophenyl)-N-methylpropanamide], which IC50 ([1]; FIG. 5, TRPC O/E cells, OAG, Ca2+ present, read-out: TRPC7 IC50) is on record?
The IC50 was 9 nM.

And the IC50 ([1]; HEK293 expressing TRPC7, ELP-004 0 to 1 mM for 10 minutes before OAG, FIG. 1D, read-out: IC50, inhibition of OAG-induced Ca2+ entry)?
The IC50 was 1000 to 2000 nM.

And the “formation of reactive or toxic metabolites” value [2]?
Its value is “No reactive or toxic compounds were formed”.

And the “efficacy of blocking bone erosion in vivo relative to RANKL-induced osteoclast differentiation and SOCE” value ([3]; in vivo versus in vitro concentrations)?
The value was 1000 fold.

What about the “bone erosion in collagen-induced arthritis” value ([3]; mice, even after symptoms of arthritis were measurable) of the same compound?
The value was “strongly suppressed bone erosion”.

Source: patent US20240058283A1, “THE MODE OF ACTION OF N-MeDCPA ON TRPC CHANNELS” (West Virginia University Board of Governors on Behalf of …, priority 2022, published 2024)
